How the values were obtained:
[1] = system: SKOV-3 ovarian cancer xenograft; experiment: In vivo therapeutic study (PTT/PDT with or without DOX); design: species or system nude mice; conditions: DOX 2.5 mg/kg, NP 25 mg/kg, light 0.25 W cm^−2 for 2 min; versus PBS control
Description: Transgenic mice with mammary cancer (FVB/n Tg(MMTV-PyVmT) and nude mice bearing SKOV-3 ovarian cancer xenograft were used for the in vivo therapeutic studies. When tumor volumes reached 4-5 mm in transgenic mice, crosslinked NPs with and without 2.5 mg/kg DOX were injected via tail vein once per week for 3 doses. After 24 hrs, tumors were illuminated with a diode laser system (Applied Optronics, Newport, Conn.) at 690 nm under general anaesthesia. […] Tumor temperatures were recorded with an infrared camera (Flir). Intratumoral ROS production after irradiation was measured using 2′,7′-dichlorofluorescin diacetate (DCF) mixed with 100 μL of tissue lysates derived from tumors treated with NPs and PBS. In some cases, the blood of the mice was drawn and the ROS and heat production in blood after irradiation were measured at predetermined time points. The hemolysis was also followed. Tumor volume was measured twice a week and mice were sacrificed once tumor size reached 1000 mm^3. Tumors were harvested for histopathological evaluation 24 hours post-irradiation. The SKOV-3 ovarian cancer xenograft model was established by injecting one million cells subcutaneously at lower flank area. […] Tumor sizes and body weight were measured twice a week, while mice were monitored daily for potential signs of toxicity. […]

[2] = system: SKOV-3 ovarian cancer cells; experiment: Cytotoxicity under dark conditions; type: cell-based, human; conditions: up to 1.0 mg/mL, 2 hrs exposure plus 22 hrs
Excerpt: K9TCC-Pu-In and 5637 bladder cancer cell lines and SKOV-3 ovarian cancer cell lines were used to evaluate the photosensitizing function of nano-porphyrins. […] 5-aminolevulinic acid (5-ALA), the traditional photodynamic diagnosis/therapy agent, was used as a control. In another experiments, DOX loaded nanoporphyrins were used to treat the cancer cells followed by light exposure. […]

Molecule | tumor growth [1] | cytotoxicity without light irradiation [2]
COc1cccc2c1C(=O)c1c(O)c3c(c(O)c1C2=O)C[C@@](O)(C(=O)CO)C[C@@H]3O[C@H]1C[C@H](N)[C@H](O)[C@H](C)O1 [free DOX, doxorubicin] | slower tumor growth | –
pyropheophorbide-a [free Por] | – | significant cytoxicity

Source: US11219692B2, “Porphyrin modified telodendrimers” (THE REGENTS OF THE UNIVERSITY OF CALIFORNIA, priority 2012, dated 2022)
